One compound from patent US20240368565A1, “COMPLEMENTATION-BASED TAGS AND REPORTERS FOR DUAL-MODALITY LABELING” (Promega Corporation, priority 2023, published 2024) can be followed below.

The test relates to HeLa cells. In words: Flow cytometry fold response, reporter variants co-expressed with EGFP-HaloTag[3-19]-5×Gly/Ser-VS-HiBiT. The class given is cell-based. Conditions: 100 nM ligand, compared to the less fluorogenic ligand JF646. As for the experimental part: FIG. 95. […] Approximately 48 hours post-transfection, the cells were labeled with 100 nM JF646 HaloTag® ligand. Following a 1-hour incubation with the ligand, the cells were washed with DPBS media for 30 minutes (2× for 15 minutes each). Subsequently, the cells were lifted, and their fluorescence activity was measured using flow cytometry. […] The fold response of each assay condition was calculated as the ratio of mean fluorescence signal in the second quadrant (double positive) by the mean fluorescence signal in the third (JF646+) quadrant.
FIG. 96. […] Approximately 48 hours post-transfection, the cells were labeled with 100 nM JF635 HaloTag® ligand. Following a 1-hour incubation with the ligand, the cells were washed with DPBS media for 30 minutes (2× for 15 minutes each). Subsequently, the cells were lifted, and their fluorescence activity was measured using flow cytometry. […] The fold response of each assay condition was calculated as the ratio of mean fluorescence signal in the second quadrant (double positive) by the mean fluorescence signal in the third (JF646+) quadrant.

For the compound `C[Si]1(C)c2cc(N3CC(F)C3)ccc2C2(OC(=O)c3ccc(C(=O)NCCOCCOCCCCCCCl)cc32)c2ccc(N3CC(F)C3)cc21` [JF635], the Fluorescence fold response entry is reported as “fold responses are enhanced”.
